According to patent US20050239889A1, “In vivo release of endogenous anti-microbial mediators by leukotriene B4 (LTB4) administration” (priority 2004, published 2005):

How the values were obtained:
α-Defensins [1] = assay: Plasma α-Defensins (ELISA) after subcutaneous LTB4 administration to monkeys; type: in vivo, Macaca fascicularis; conditions: macaques
Experimental: Two macaques (Macaca fascicularis) were used for the study. For subcutaneous injections, the areas to be injected were first shaved one day before dosing. Volumes of 0.075 mL (monkey IJI) or 0.1 mL (monkey JKN) of LTB4 solution were administered subcutaneously in the arm of the animal to compensate for slight difference between both monkeys. Venous blood samples were collected at various time points with all plasma isolation procedures performed at 4° C. Platelet-free plasma samples were stored at −80° C. until assayed for α-Defensins using a commercial ELISA kit (HyCult Biotechnology bv, The Netherlands). We next studied the change in plasmatic concentration of the antimicrobial peptides α-Defensins in monkeys following subcutaneous (s.c.) administration of LTB4. Monkeys were injected s.c. with 5,5 μg/kg or 50 μg/kg of LTB4 and blood samples were taken at various time points and used for (α-Defensins measurements in the plasma, using a commercial ELISA kit. The results obtained are presented in FIGS. 3A (5,5 μg/kg) and 3B (50 μg/kg). Two macaques (IJI and JKN) were injected subcutaneously with 5,5 μg/kg (A) or 50 μg/kg (B) of LTB4. Blood samples were collected at various time points and α-Defensins levels measured in plasma samples using a commecial ELISA kit. Overall, the data obtained indicate that α-Defensins levels in plasma remain relatively stable up to 15 minutes post-LTB4 administration. α-Defensins levels started to increase by 30 minutes and peaked at two hours post LTB4 administration. […] For monkeys that received 50 μg/kg, (α-Defensins levels remained at their highest up to 4 hours post injection, followed by a gradual decrease. In both sets (5,5 μg/kg and 50 μg/kg), the levels of α-Defensins remained above baseline values up to 6 hours following LTB4 delivery

α-Defensins [2] = assay: Plasma α-Defensins (ELISA) after intravenous LTB4 administration to human subjects, Phase I study; type: in vivo
Experimental: (§1) Plasma samples were obtained from 19 HIV-uninfected human volunteers taking part in a Phase I clinical study on the safety and tolerability of intravenously (i.v.) administered bolus of LTB4. In brief, 3 individuals received saline (placebo) and 16 (4 subjects/group) were administered LTB4 in doses ranging from 0.05 μg/kg to 50 μg/kg per day for 7 consecutive days. Venous blood was collected twice before injection (-5 and -2 minutes) to establish baseline values. Following the i.v. administration of saline or LTB4, blood samples were drawn at 0.5, 1, 2, 4, 6, and 24 hours post-injection into blood collection tubes, using EDTA as anti-coagulant. Immediately after blood collection, the samples were put on ice until processed. All plasma isolation procedures were carried out at 4° C. Plasma samples were stored at −80° C. until assayed by ELISA for α-Defensins (HyCult Biotechnology bv, The Netherlands) and MIP-β(Amersham/Pharmacia, Baie d'Urfé, Canada).
Healthy volunteers participating in a Phase I clinical study on the safety and tolerability of intravenously administered LTB4, were randomized into 5 groups: placebo (n=3), LTB4 0.05 μg/kg (n=4), LTB4 0.5 μg/kg (n=4), LTB4 5 μg/kg (n=4) and LTB4 50 μg/kg (n=4). LTB4 was administered once daily for 7 consecutive days and plasma samples (0-6 hours post-LTB4 administration) from all 19 volunteers were tested for the presence of α-Defensins using a commercial ELISA kit. The mean ± standard error of α-Defensins releases (ng/ml plasma) for each group are presented in FIG. 1 with statistical analysis performed using the placebos as control group. Healthy individuals received a placebo (3 subjects) or doses of LTB4 ranging form 0.05 μg/kg to 50 μg/kg (n=4 subjects/group). Plasma samples were obtained at various time points before and after LTB4 injections and the α-Defensin levels determined by ELISA. The data shown in FIG. 1 represent the mean ± standard error of α-Defensins (ng/mL plasma) of all subjects within each group. P values were determined by comparing the mean α-Defensin levels of each group that received LTB4 versus the placebo group at the same time points. *p<0.001; **p<0.05. Plasma samples obtained before placebo or LTB4 injections indicate that there were no significant differences in the basal levels of α-Defensins between the groups.

MIP-1β = assay: Plasma MIP-1β (ELISA) after intravenous LTB4 administration to human subjects, Phase I study; type: in vivo; conditions: i.v.
Experimental: as §1
Considering that soluble anti-HIV factors include β-chemokines and that neutrophils are capable of producing MIP-1β, we measured the levels of this β-chemokine in plasma of individuals that received a placebo or LTB4 (same cohorts as mentioned above). Plasma samples from healthy subjects that received a placebo (n=3) or LTB4 (5 and 50 μg/kg [n=4 subjects/group]) were obtained at various time points before and after LTB4 injections. Data are expressed as mean ± […] of the mean of MIP-1β levels (pg/ml) for all subjects within each group. P values were determined by comparing the mean MIP-1β levels of each group that received LTB4 versus the placebo group at the same time points. *p<0.025. […] Plasma samples from subjects that received the 2 lowest doses of LTB4 were not tested for MIP-1β.

Compound: CCCCC/C=C\C[C@@H](O)/C=C/C=C/C=C\[C@@H](O)CCCC(=O)O [LTB4, 5S,12R-dihydroxy-6,8,10,14(Z,E,E,Z)-eicosatetraenoic acid]
- time α-Defensins levels remained at their highest post injection (α-Defensins [1]; s.c., 50 μg/kg, followed by a gradual decrease): up to 4 hours
- time of peak α-Defensins levels post LTB4 administration (α-Defensins [1]; s.c., 5,5 μg/kg or 50 μg/kg): two
- time α-Defensins levels in plasma remain relatively stable post-LTB4 administration (α-Defensins [1]; s.c., 5,5 μg/kg or 50 μg/kg): up to 15 minutes
- time α-Defensins levels started to increase (α-Defensins [1]; s.c., 5,5 μg/kg or 50 μg/kg): 30 min
- course of α-Defensins levels after the peak (α-Defensins [1]; s.c., 5,5 μg/kg, experiment ended at hour 6): started to drop by the fourth hour and continued to do so up to hour 6
- time levels of α-Defensins remained above baseline values following LTB4 delivery (α-Defensins [1]; s.c., both 5,5 μg/kg and 50 μg/kg): up to 6 hours
- release of α-Defensins in plasma, dose dependence (α-Defensins [2]; i.v. bolus once daily for 7 days, 0.05 to 50 μg/kg, versus placebo group): triggered dose-dependent release of α-Defensins
- increase in plasmatic α-Defensins (α-Defensins [2]; i.v., 0.5 μg/kg): although not significant, caused a measurable increase in plasmatic α-Defensins
- time of maximal effect on plasmatic α-Defensins post-LTB4 administration (α-Defensins [2]; i.v., 0.5 μg/kg): two
- time of peak α-Defensin levels (α-Defensins [2]; i.v., 5 μg/kg and 50 μg/kg): 2 h
- time to significant increase of α-Defensin release following LTB4 injections (α-Defensins [2]; i.v., 5 μg/kg and 50 μg/kg): 30 min
- peak α-Defensin levels over the placebo group (α-Defensins [2]; i.v., 5 μg/kg and 50 μg/kg, at 2 hours, p<0.001): 5-7 fold
- time α-Defensin levels remained above the control levels post-LTB4 administration (α-Defensins [2]; i.v., 5 μg/kg and 50 μg/kg, p<0.05): up to 6 hours
- α-Defensins levels 24 hours post-LTB4 administration (α-Defensins [2]; i.v., 24 hours): back to the pre-injection levels
- α-Defensins release in plasma (α-Defensins [2]; i.v., lowest dose of LTB4 (0.05 μg/kg)): did not significantly enhanced α-Defensins release
- start of elevation in plasmatic MIP-1β levels post-LTB4 injection (MIP-1β; 5-50 μg/kg): 1 h
- time of maximal plasmatic MIP-1β levels post-LTB4 injection (MIP-1β; 5-50 μg/kg): 2 h
- MIP-1β plasmatic levels at 6 hours post-LTB4 administration (MIP-1β; 5-50 μg/kg, 6 hours): had returned to original levels
- statistical significance of MIP-1β elevation versus placebo (MIP-1β; 5 and 50 μg/kg groups, n=4 per group, p<0.025): statistical significance was observed only for those that received the highest dose of LTB4
